# Where two headings read alike, the source gives them in different places. Where no end group is shown, it is not given here.
# Legend:
# B. subtilis 63501 = assay type: cell-based, Bacillus subtilis
# Method: (§1) The antimicrobial activities of the peptides were measured using a method adapted from the National Committee for Clinical Laboratory Standards (NCCLS) with some modifications ([Chou et al., 2016]). The specific procedure for these assays has been previously described. In brief, the bacterial cells were grown to a mid-logarithmic phase and diluted in MHB to an ultimate concentration of 0.5–1 × 10^6 CFU mL^–1. Subsequently, the peptides were consecutively diluted in a 0.2% BSA solution and then added to a bacterial solution in a 96-well plate at identical volumes. After incubation for 24 h at 37°C, the MICs were determined to be the lowest peptide concentration that inhibited 95% of the bacterial growth by monitoring the absorbance at 492 nm using a microplate reader. Subsequently, 50 μL of each incubation mixture was further transferred to agar plates and incubated overnight. The minimum bactericidal concentrations (MBCs) were determined as the lowest peptide concentration that killed greater than 99.9% of the bacterial cells. Every assay was reproduced more than 3 times.
# E. coli UB1005 = assay type: cell-based, Escherichia coli
# Method: as §1
# E. coli O78 = assay type: cell-based, Escherichia coli
# Method: as §1
# E. coli 25922 = assay type: cell-based, Escherichia coli
# Method: as §1
# Gram-negative bacteria [1] = conditions: geometric mean of MBCs, 9 Gram-negative strains (Table 2)
# S. epidermidis 12228 = assay type: cell-based, Staphylococcus epidermidis
# Method: as §1
# E. faecalis 29212 = assay type: cell-based, Enterococcus faecalis
# Method: as §1
# S. aureus 29213 [2] = assay: Salt sensitivity assay (MIC); assay type: cell-based, Staphylococcus aureus; conditions: for MIC, FeCl3: 4 μM FeCl3; for MIC, NH4Cl: 6 μM NH4Cl; for MIC, ZnCl2: 8 μM ZnCl2; for MIC, MgCl2: 1 mM MgCl2; for MIC, CaCl2: 2 mM CaCl2; for MIC, KCl: 4.5 mM KCl; for MIC, NaCl: 150 mM NaCl; for MIC, Control: no added salt, three independent assays
# Method: as §1
# (§2) The salt sensitivities of the peptides were determined. E. coli ATCC 25922 and S. aureus ATCC 29213 were incubated in the presence of various ultimate concentrations of physiological salts (150 mM NaCl, 4.5 mM KCl, 6 μM NH4Cl, 8 μM ZnCl2, 1 mM MgCl2, 2mM CaCl2, and 4 μM FeCl3) according to our previous protocol ([Yang et al., 2019]). These tests were performed under the MICs, and three independent assays were performed.
# S. typhimurium 14028 = assay type: cell-based, Salmonella typhimurium
# Method: as §1
# S. typhimurium 7731 = assay type: cell-based, Salmonella typhimurium
# Method: as §1
# Gram-positive bacteria [3] = conditions: geometric mean of MBCs, 7 Gram-positive strains (Table 2)
# MRSA 43300 = assay type: cell-based, methicillin-resistant S. aureus
# Method: as §1
# [4] = tested on: Listeria monocytogenes CGMCC 1.1075; assay type: cell-based
# Method: as §1
# S. aureus 29213 [5] = assay type: cell-based, Staphylococcus aureus
# Method: as §1
# S. aureus 25923 = assay type: cell-based, Staphylococcus aureus
# Method: as §1
# E. coli K99 = tested on: E. coli K99
# Method: as §1, with “The minimum bactericidal concentrations (MBCs) were determined as the lowest peptide concentration that killed greater than 99.9% of the bacterial cells.” left out
# E. coli K88 = tested on: E. coli K88
# Method: as §1, with “The minimum bactericidal concentrations (MBCs) were determined as the lowest peptide concentration that killed greater than 99.9% of the bacterial cells.” left out
# P. aeruginosa 27853 = assay type: cell-based, Pseudomonas aeruginosa
# Method: as §1
# S. pullorum 7913 = assay type: cell-based, Salmonella pullorum
# Method: as §1
# Gram-positive bacteria [6] = tested on: Gram-positive bacteria
# Method: (§3) The antimicrobial activity of AMPs is the most decisive index for evaluating the clinical application of antimicrobial drugs.
# as §1, with “The minimum bactericidal concentrations (MBCs) were determined as the lowest peptide concentration that killed greater than 99.9% of the bacterial cells.” left out
# Gram-negative bacteria [7] = tested on: Gram-negative bacteria
# Method: as §3
# as §1, with “The minimum bactericidal concentrations (MBCs) were determined as the lowest peptide concentration that killed greater than 99.9% of the bacterial cells.” left out
# E. coli ATCC 25922 = assay: Salt sensitivity assay (MIC); assay type: cell-based, Escherichia coli; conditions: for MIC, FeCl3: 4 μM FeCl3; for MIC, NH4Cl: 6 μM NH4Cl; for MIC, ZnCl2: 8 μM ZnCl2; for MIC, MgCl2: 1 mM MgCl2; for MIC, CaCl2: 2 mM CaCl2; for MIC, KCl: 4.5 mM KCl; for MIC, NaCl: 150 mM NaCl; for MIC, Control: no added salt, three independent assays
# Method: as §1, §2
# [8] = tested on: all of the tested bacterial strains; assay: Geometric mean of MICs, all tested bacterial strains; assay type: cell-based
# Description: The antimicrobial activity of AMPs is the most decisive index for evaluating the clinical application of antimicrobial drugs. Many antimicrobial agents inhibit bacterial growth rather than kill the bacteria quickly, and long-term infections are pathogens that are not completely killed, which results in bacterial severe drug resistance. […] The geometric mean (GM) values of the MICs/MBCs of the two series across all of the tested bacterial strains are represented in Table 3, which depicts the average bacteriostatic/bactericidal level of a peptide.
# as §1
# [9] = MHB, 24 h 37°C, 95% growth inhibition
# [10] = value in brackets, >99.9% of cells killed
# [11] = geometric mean of MICs (Table 3)
# [12] = therapeutic index TI = MHC/GM MIC
substance,measurement,setting,value
Polymyxin B [reference compound],MIC,B. subtilis 63501; [9],1 µM
same,MBC,B. subtilis 63501; [10],2 µM
same,MIC,E. coli UB1005; [9],2 µM
same,MBC,E. coli UB1005; [10],4 µM
same,MIC,E. coli O78; [9],2 µM
same,MBC,E. coli O78; [10],4 µM
same,MIC,"E. coli 25922; MHB, 0.5–1 × 10^6 CFU/mL, 24 h 37°C, lowest concentration inhibiting 95% of growth (A492), more than 3 repeats",4 µM
same,MBC,"E. coli 25922; value in brackets, agar plating, lowest concentration killing >99.9% of cells",8 µM
same,GM MBC,Gram-negative bacteria [1],5.88 µM
same,MIC,S. epidermidis 12228; [9],2 µM
same,MBC,S. epidermidis 12228; [10],4 µM
same,MIC,E. faecalis 29212; [9],32 µM
same,MBC,E. faecalis 29212; [10],> 64 µM
same,"MIC, FeCl3",S. aureus 29213 [2],16 µM
same,"MIC, NH4Cl",S. aureus 29213 [2],16 µM
same,"MIC, ZnCl2",S. aureus 29213 [2],16 µM
same,"MIC, MgCl2",S. aureus 29213 [2],16 µM
same,"MIC, CaCl2",S. aureus 29213 [2],64 µM
same,"MIC, KCl",S. aureus 29213 [2],16 µM
same,"MIC, NaCl",S. aureus 29213 [2],32 µM
same,"MIC, Control",S. aureus 29213 [2],16 µM
same,MIC,S. typhimurium 14028; [9],4 µM
same,MBC,S. typhimurium 14028; [10],8 µM
same,MIC,S. typhimurium 7731; [9],2 µM
same,MBC,S. typhimurium 7731; [10],4 µM
same,GM MBC,Gram-positive bacteria [3],10.77 µM
same,MIC,MRSA 43300; [9],2 µM
same,MBC,MRSA 43300; [10],4 µM
same,MIC,[4]; [9],32 µM
same,MBC,[4]; [10],> 64 µM
same,MIC,S. aureus 29213 [5]; [9],4 µM
same,MBC,S. aureus 29213 [5]; [10],8 µM
same,MIC,S. aureus 25923; [9],2 µM
same,MBC,S. aureus 25923; [10],4 µM
same,MIC,E. coli K99; [9],2 µM
same,MBC,E. coli K99; [10],4 µM
same,MIC,E. coli K88; [9],2 µM
same,MBC,E. coli K88; [10],4 µM
same,MIC,P. aeruginosa 27853; [9],8 µM
same,MBC,P. aeruginosa 27853; [10],16 µM
same,MIC,S. pullorum 7913; [9],4 µM
same,MBC,S. pullorum 7913; [10],8 µM
same,GM MIC,"Gram-positive bacteria [6]; geometric mean of MICs, 7 Gram-positive strains (Table 2)",4.42 µM
same,GM MIC,"Gram-negative bacteria [7]; geometric mean of MICs, 9 Gram-negative strains (Table 2)",2.94 µM
same,"MIC, FeCl3",E. coli ATCC 25922,4 µM
same,"MIC, NH4Cl",E. coli ATCC 25922,4 µM
same,"MIC, ZnCl2",E. coli ATCC 25922,4 µM
same,"MIC, MgCl2",E. coli ATCC 25922,4 µM
same,"MIC, CaCl2",E. coli ATCC 25922,8 µM
same,"MIC, KCl",E. coli ATCC 25922,8 µM
same,"MIC, NaCl",E. coli ATCC 25922,8 µM
same,"MIC, Control",E. coli ATCC 25922,4 µM
WWRWRRRWW-NH2 [W2],MBC,"B. subtilis 63501; 63501, 24 h",2 µM
same,MIC,"B. subtilis 63501; 63501, 24 h",1 µM
same,MBC,"E. coli UB1005; UB1005, 24 h",8 µM
same,MIC,"E. coli UB1005; UB1005, 24 h",4 µM
same,MBC,"E. coli O78; O78, 24 h",16 µM
same,MIC,"E. coli O78; O78, 24 h",8 µM
same,MBC,"E. coli 25922; 25922, 24 h",8 µM
same,MIC,"E. coli 25922; 25922, 24 h",4 µM
same,MBC,"S. epidermidis 12228; 12228, 24 h",4 µM
same,MIC,"S. epidermidis 12228; 12228, 24 h",2 µM
same,MBC,"E. faecalis 29212; 29212, 24 h",16 µM
same,MIC,"E. faecalis 29212; 29212, 24 h",8 µM
same,"MIC, FeCl3",S. aureus 29213 [2],4 µM
same,"MIC, NH4Cl",S. aureus 29213 [2],2 µM
same,"MIC, ZnCl2",S. aureus 29213 [2],4 µM
same,"MIC, MgCl2",S. aureus 29213 [2],4 µM
same,"MIC, CaCl2",S. aureus 29213 [2],4 µM
same,"MIC, KCl",S. aureus 29213 [2],4 µM
same,"MIC, NaCl",S. aureus 29213 [2],4 µM
same,"MIC, Control",S. aureus 29213 [2],2 µM
same,MBC,"S. typhimurium 14028; 14028, 24 h",16 µM
same,MIC,"S. typhimurium 14028; 14028, 24 h",8 µM
same,MBC,"S. typhimurium 7731; 7731, 24 h",8 µM
same,MIC,"S. typhimurium 7731; 7731, 24 h",4 µM
same,MBC,"MRSA 43300; 43300, 24 h",4 µM
same,MIC,"MRSA 43300; 43300, 24 h",2 µM
same,MBC,"[4]; CGMCC 1.1075, 24 h",32 µM
same,MIC,"[4]; CGMCC 1.1075, 24 h",16 µM
same,MBC,"S. aureus 29213 [5]; 29213, 24 h",4 µM
same,MIC,"S. aureus 29213 [5]; 29213, 24 h",2 µM
same,MBC,"S. aureus 25923; 25923, 24 h",4 µM
same,MIC,"S. aureus 25923; 25923, 24 h",2 µM
same,MBC,"P. aeruginosa 27853; 27853, 24 h",32 µM
same,MIC,"P. aeruginosa 27853; 27853, 24 h",16 µM
same,MBC,"S. pullorum 7913; 7913, 24 h",8 µM
same,MIC,"S. pullorum 7913; 7913, 24 h",4 µM
same,"GM, Gram-positive bacteria",Gram-positive bacteria [6]; [11],2.97 µM
same,"TI, Gram-positive bacteria",Gram-positive bacteria [6]; [12],86.20
same,"GM, Gram-negative bacteria",Gram-negative bacteria [7]; [11],5.44 µM
same,"TI, Gram-negative bacteria",Gram-negative bacteria [7]; [12],47.06
same,"MIC, FeCl3",E. coli ATCC 25922,8 µM
same,"MIC, NH4Cl",E. coli ATCC 25922,4 µM
same,"MIC, ZnCl2",E. coli ATCC 25922,4 µM
same,"MIC, MgCl2",E. coli ATCC 25922,4 µM
same,"MIC, CaCl2",E. coli ATCC 25922,8 µM
same,"MIC, KCl",E. coli ATCC 25922,4 µM
same,"MIC, NaCl",E. coli ATCC 25922,16 µM
same,"MIC, Control",E. coli ATCC 25922,4 µM
same,"GM, All",[8]; geometric mean of MICs across all tested strains,4.18 µM
same,"TI, All",[8]; [12],61.24
